{"source": "patent US7432342B2", "about": "“Kinase anchor protein muteins, peptides thereof and related documents” (Sequenom, Inc., priority 2002, dated 2008)", "key": {"full-length RIα": {"molecular_target": "T1, full-length RIα (Bos taurus, UniProt P00514)", "T1 construct": "Full-length bovine RIα was expressed in E. coli 222; made in house; host or cells: E. coli 222", "T1 sequence (P00514 whole entry, the tested form may be a part)": "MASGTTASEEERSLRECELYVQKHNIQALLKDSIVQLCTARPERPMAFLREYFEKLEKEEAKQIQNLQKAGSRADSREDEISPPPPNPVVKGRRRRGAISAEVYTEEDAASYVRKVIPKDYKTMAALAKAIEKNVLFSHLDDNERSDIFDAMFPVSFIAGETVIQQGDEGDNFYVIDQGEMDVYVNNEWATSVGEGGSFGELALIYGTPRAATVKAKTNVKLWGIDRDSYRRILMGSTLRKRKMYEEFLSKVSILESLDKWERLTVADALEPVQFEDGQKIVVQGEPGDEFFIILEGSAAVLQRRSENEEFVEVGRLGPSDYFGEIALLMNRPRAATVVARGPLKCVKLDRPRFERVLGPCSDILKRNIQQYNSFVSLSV", "experiment": "Fluorescence anisotropy binding assay (Example 9)", "design": "species or system bovine", "conditions": "for Kd: Table 8, truncated and substituted peptides, read-out: KD (nM) Rlα; for binding to RIα, in words: compared with the unsubstituted peptide", "protocol": "(§1) Each peptide was fluorescently labeled using a 25 mM solution of tetramethylrhodamine-5-maleimide (catalog number T-6027; Molecular Probes, Eugene, Oreg.) dissolved in DMSO. The peptides were labeled by incubating with a three-fold molar excess of the label for 16 hr at 4° C. in 20 mM Tris, pH 7.0 and 1 mM tris-(2-carboxyethyl) phosphine, hydrochloride (TCEP) (non-thiol reducing agent, Molecular Probes). The sample was quenched with 1 mM, β-mercaptoethanol to bind to any unreacted maleimide and diluted with 0.1% TFA for purification by HPLC. The labeled peptides were resolved using a C18 column with a water/acetonitrile gradient containing 0.1% TFA. The concentration of each peptide was determined by absorbance at 541 nm after diluting into 100% methanol and using an extinction coefficient of 91,000 M^−1 cm^−1 for absorbance of the rhodamine label at 541 nm (Molecular Probes Catalog). The peptides were stored at 4° C. in 50% acetonitrile.\n(§2) Full-length murine RIIα was expressed in E. coli BL21 (DE3). Full-length bovine RIα was expressed in E. coli 222. The proteins were purified as previously described using a cAMP affinity resin (Hamuro et al. (2002) J. Mol. Biol., 321:703). The protein concentrations were determined using the following extinction coefficients at 280 nm, which were calculated using a standard concentration of protein calibrated using quantitative amino acid analysis: RIα 52,603 M^−1 cm^−1 and RIIα 62,456 M^−1 cm^−1. The proteins were stored at 4° C. in 50 mM MES pH 5.8, 50 mM NaCl, 2 mM EDTA, 2 mM EGTA, 2 mM DTT.\n(§3) Binding of each fluorescently labeled peptide to the regulatory subunits was monitored using fluorescence anisotropy. RIα and RIIα were serially diluted beginning at 1 μM and 0.1 μM, respectively, into 10 mM HEPES pH 7.4, 0.15 M NaCl, 3 mM EDTA, 0.005% Surfactant P20 (Biacore) containing either 10 nM or 1 nM of fluorescently labeled peptide for RIα and RIIα, respectively. The samples were equilibrated for at least 1 hour at room temperature and fluorescence anisotropy monitored using a Fluoromax-2 (Jobin Yvon Horiba, SPEX Division, Edison, N.J.) equipped with Glan-Thompson polarizers. The rhodamine-labeled peptide was excited at 541 nm (5-10 nm bandpass) and emission monitored at 575 nm (5-10 nm bandpass). The anisotropy was calculated directly with the Fluoromax software using the following equation: r=(IVV−G*IVH)/(IVV+2G*IVH) (1) where r is the steady state anisotropy, IVV is the fluorescence intensity with the excitation and emission polarizers oriented in the vertical position (0° from normal), IVH is the fluorescence intensity with the excitation polarizer in the vertical position and the emission polarizer oriented in the horizontal position (90°) relative to the excitation polarizer, G is the monochromator grating factor which is equal to (IHV/IHH), with the first subscript indicating the position of the excitation polarizer and the second subscript indicating position of the emission polarizer. Three separate binding experiments were averaged and fit to a 1:1 binding model using the non-linear regression application in GraphPad Prism version 3.00 (GraphPad Software, San Diego, Calif.)."}, "full-length RIIα": {"molecular_target": "T2, full-length RIIα (Mus musculus, UniProt P12367)", "T2 construct": "Full-length murine RIIα was expressed in E. coli BL21 (DE3); made in house; host or cells: E. coli BL21 (DE3)", "T2 sequence (P12367 whole entry, the tested form may be a part)": "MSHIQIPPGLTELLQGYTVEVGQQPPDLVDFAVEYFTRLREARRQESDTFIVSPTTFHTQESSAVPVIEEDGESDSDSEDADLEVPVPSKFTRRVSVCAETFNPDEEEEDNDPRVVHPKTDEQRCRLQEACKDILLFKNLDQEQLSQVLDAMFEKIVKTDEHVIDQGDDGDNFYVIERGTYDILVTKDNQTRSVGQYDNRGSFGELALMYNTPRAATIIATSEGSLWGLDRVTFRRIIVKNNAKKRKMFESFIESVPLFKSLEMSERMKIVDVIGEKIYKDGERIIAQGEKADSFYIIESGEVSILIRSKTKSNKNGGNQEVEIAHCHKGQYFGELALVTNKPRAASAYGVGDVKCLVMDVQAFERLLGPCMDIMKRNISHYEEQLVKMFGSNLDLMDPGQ", "experiment": "Fluorescence anisotropy binding assay (Example 9)", "design": "species or system murine", "conditions": "for Kd: Table 8, truncated and substituted peptides, read-out: KD (nM) Rllα; for binding to RIIα, in words: compared with the unsubstituted peptide", "protocol": "as §1, §2, §3"}}, "note": "Ends that are not written are not given here. Peptide text beside a SMILES is read from it. * marks the point of attachment. X1 = CN(C)c1ccc2c(c1)Oc1cc(N(C)C)ccc1C21OC(=O)c2cc(N3C(=O)CC(*)C3=O)ccc21", "data": [{"compound": "CC[C@H](C)[C@H](NC(=O)[C@H](CCCCN)NC(=O)[C@H](Cc1c[nH]c2ccccc12)NC(=O)[C@H](C)NC(=O)[C@H](CC(C)C)NC(=O)[C@H](CCC(=O)O)NC(=O)[C@H](CCC(=O)O)NC(=O)[C@@H](N)Cc1ccccc1)C(=O)N[C@@H](C)C(=O)N[C@@H](CCCCN)C(=O)N[C@@H](CCSC)C(=O)N[C@H](C(=O)N[C@@H](Cc1c[nH]c2ccccc12)C(=O)N[C@@H](CO)C(=O)N[C@@H](CC(=O)O)C(=O)N[C@H](C(=O)N[C@@H](CCSC)C(=O)N[C@@H](CCC(N)=O)C(=O)N[C@@H](CCC(N)=O)C(=O)N[C@@H](CSC1CC(=O)N(c2ccc3c(c2)C(=O)OC32c3ccc(N(C)C)cc3Oc3cc(N(C)C)ccc32)C1=O)C(N)=O)C(C)C)[C@@H](C)CC", "note": "(stereo partly shown) [PV-37] (H-FEELAWKIAKMIWSDVMQQC(X1)-NH2)", "values": [{"measurement": "Kd", "setting": "full-length RIα", "value": 19, "unit": "nM"}, {"measurement": "Kd", "setting": "full-length RIIα", "value": 150, "unit": "nM"}]}, {"compound": "CC[C@H](C)[C@H](NC(=O)[C@H](CCCCN)NC(=O)[C@H](Cc1c[nH]c2ccccc12)NC(=O)[C@H](C)NC(=O)[C@H](Cc1ccccc1)NC(=O)[C@H](CCC(=O)O)NC(=O)[C@H](CCC(=O)O)NC(=O)[C@@H](N)CCC(N)=O)C(=O)N[C@@H](C)C(=O)N[C@@H](CCCCN)C(=O)N[C@@H](CCSC)C(=O)N[C@H](C(=O)N[C@H](C(=O)N[C@@H](CO)C(=O)N[C@@H](CC(=O)O)C(=O)N[C@H](C(=O)N[C@@H](Cc1ccccc1)C(=O)N[C@@H](CCC(N)=O)C(=O)N[C@@H](CCC(N)=O)C(=O)N[C@@H](CSC1CC(=O)N(c2ccc3c(c2)C(=O)OC32c3ccc(N(C)C)cc3Oc3cc(N(C)C)ccc32)C1=O)C(N)=O)C(C)C)C(C)C)[C@@H](C)CC", "note": "(stereo partly shown) [PV-47] (H-QEEFAWKIAKMIVSDVFQQC(X1)-NH2)", "values": [{"measurement": "Kd", "setting": "full-length RIα", "value": 39, "unit": "nM"}, {"measurement": "Kd", "setting": "full-length RIIα", "value": 89, "unit": "nM"}]}, {"compound": "CC[C@H](C)[C@H](NC(=O)[C@H](CCCCN)NC(=O)[C@H](Cc1c[nH]c2ccccc12)NC(=O)[C@H](C)NC(=O)[C@H](Cc1ccccc1)NC(=O)[C@H](CCC(=O)O)NC(=O)[C@H](CCC(=O)O)NC(=O)[C@@H](N)CCC(N)=O)C(=O)N[C@@H](C)C(=O)N[C@@H](CCCCN)C(=O)N[C@@H](CCSC)C(=O)N[C@H](C(=O)N[C@H](C(=O)N[C@@H](CO)C(=O)N[C@@H](CC(=O)O)C(=O)N[C@H](C(=O)N[C@@H](Cc1ccccc1)C(=O)N[C@@H](CCC(N)=O)C(=O)N[C@@H](CCC(N)=O)C(=O)N[C@@H](CSC1CC(=O)N(c2ccc3c(c2)C(=O)OC32c3ccc(N(C)C)cc3Oc3cc(N(C)C)ccc32)C1=O)C(N)=O)C(C)C)[C@@H](C)CC)[C@@H](C)CC", "note": "(stereo partly shown) [PV-48] (H-QEEFAWKIAKMIISDVFQQC(X1)-NH2)", "values": [{"measurement": "Kd", "setting": "full-length RIα", "value": 12, "unit": "nM"}, {"measurement": "Kd", "setting": "full-length RIIα", "value": 124, "unit": "nM"}]}, {"compound": "CC[C@H](C)[C@H](NC(=O)[C@H](CCCCN)NC(=O)[C@H](Cc1c[nH]c2ccccc12)NC(=O)[C@H](C)NC(=O)[C@H](CC(C)C)NC(=O)[C@H](CCC(=O)O)NC(=O)[C@H](CCC(=O)O)NC(=O)[C@@H](N)Cc1ccccc1)C(=O)N[C@@H](C)C(=O)N[C@@H](CCCCN)C(=O)N[C@@H](CCSC)C(=O)N[C@H](C(=O)N[C@H](C(=O)N[C@@H](CO)C(=O)N[C@@H](CC(=O)O)C(=O)N[C@H](C(=O)N[C@@H](Cc1ccccc1)C(=O)N[C@@H](CCC(N)=O)C(=O)N[C@@H](CCC(N)=O)C(=O)N[C@@H](CSC1CC(=O)N(c2ccc3c(c2)C(=O)OC32c3ccc(N(C)C)cc3Oc3cc(N(C)C)ccc32)C1=O)C(N)=O)C(C)C)[C@@H](C)CC)[C@@H](C)CC", "note": "(stereo partly shown) [PV-49] (H-FEELAWKIAKMIISDVFQQC(X1)-NH2)", "values": [{"measurement": "Kd", "setting": "full-length RIα", "value": 1.1, "unit": "nM"}, {"measurement": "Kd", "setting": "full-length RIIα", "value": 2.5, "unit": "nM"}]}, {"compound": "CC[C@H](C)[C@H](NC(=O)[C@H](CCCCN)NC(=O)[C@H](Cc1c[nH]c2ccccc12)NC(=O)[C@H](C)NC(=O)[C@H](CC(C)C)NC(=O)[C@H](CCC(=O)O)NC(=O)[C@H](CCC(=O)O)NC(=O)[C@H](CCC(N)=O)NC(=O)[C@H](C)NC(=O)[C@H](CCC(=O)O)NC(=O)[C@H](CC(=O)O)NC(=O)[C@@H](NC(=O)[C@H](CC(N)=O)NC(=O)CNC(=O)[C@H](CCC(N)=O)NC(=O)[C@@H](N)C(C)C)[C@@H](C)O)C(=O)N[C@@H](C)C(=O)N[C@@H](CCCCN)C(=O)N[C@@H](CCSC)C(=O)N[C@H](C(=O)N[C@@H](Cc1c[nH]c2ccccc12)C(=O)N[C@@H](CO)C(=O)N[C@@H](CC(=O)O)C(=O)N[C@H](C(=O)N[C@@H](CCSC)C(=O)N[C@@H](CCC(N)=O)C(=O)N[C@@H](CCC(N)=O)C(=O)N[C@@H](CSC1CC(=O)N(c2ccc3c(c2)C(=O)OC32c3ccc(N(C)C)cc3Oc3cc(N(C)C)ccc32)C1=O)C(N)=O)C(C)C)[C@@H](C)CC", "note": "(stereo partly shown) [SEQ ID NO:111] (H-VQGNTDEAQEELAWKIAKMIWSDVMQQC(X1)-NH2)", "values": [{"measurement": "Kd", "setting": "full-length RIα", "value": 120, "unit": "nM"}, {"measurement": "Kd", "setting": "full-length RIIα", "value": 83, "unit": "nM"}]}, {"compound": "CC[C@H](C)[C@H](NC(=O)[C@H](CCCCN)NC(=O)[C@H](Cc1c[nH]c2ccccc12)NC(=O)[C@H](C)NC(=O)[C@H](CC(C)C)NC(=O)[C@H](CC(=O)O)NC(C)=O)C(=O)N[C@@H](C)C(=O)N[C@@H](CCCCN)C(=O)N[C@@H](CCSC)C(=O)N[C@H](C(=O)N[C@H](C(=O)N[C@@H](CO)C(=O)N[C@@H](CC(=O)O)C(=O)N[C@H](C(=O)N[C@@H](CCSC)C(=O)N[C@@H](CCC(N)=O)C(=O)N[C@@H](CCC(N)=O)C(=O)N[C@@H](CSC1CC(=O)N(c2ccc3c(c2)C(=O)OC32c3ccc(N(C)C)cc3Oc3cc(N(C)C)ccc32)C1=O)C(N)=O)C(C)C)C(C)C)[C@@H](C)CC", "note": "(stereo partly shown) [SEQ ID NO:112, Ac-DLAWKIAKMIVSDVMQQC] (Ac-DLAWKIAKMIVSDVMQQC(X1)-NH2)", "values": [{"measurement": "Kd", "setting": "full-length RIα", "value": 773, "unit": "nM"}, {"measurement": "Kd", "setting": "full-length RIIα", "value": 107, "unit": "nM"}]}, {"compound": "Ac-DLAWKIAKMIVSDVMQQ (listed as Homo sapiens) [SEQ ID NO:102]", "values": [{"measurement": "binding to RIα, in words", "setting": "full-length RIα", "value": "reduced binding"}, {"measurement": "binding to RIIα, in words", "setting": "full-length RIIα", "value": "reduced binding"}]}, {"compound": "VQGNTDEAQEELAWKIAKMIWSD[I/V]MQQ [SEQ ID NO:54]", "values": [{"measurement": "binding to RIα, in words", "setting": "full-length RIα", "value": "binds tightly"}, {"measurement": "binding to RIIα, in words", "setting": "full-length RIIα", "value": "weakly"}]}]}
